From patent US8183373B2, “Solid state forms of sitagliptin salts” (Teva Pharmaceutical Industries Ltd., priority 2010, dated 2012)
Structures can show the parent of a compound that is named as a salt.

Columns and labels:
Type in all cases: physicochemical
[1] = Water solubility of Form S16 (European Pharmacopoeia classification)
[2] = Stability test in 0-100% relative humidity cells, 7 days, room temperature (XRPD and TGA); conditions: for Polymorphically stable up to (relative humidity): 7 days at room temperature; for Equilibrium amount of water: from TGA of the humidity test
Method: A sample of form S14 was equilibrated in 0-100% relative humidity cells for 7 days at room temperature. The samples were analyzed by XRPD and TGA. […] 10-15 mg samples were placed into 150 μL alumina crucibles and scanned between 25-250° C. at 10°/minute heating rate under 40 ml/minute N2 flow rate. For XRPD the ARL instrument was used. A sample of form S16 was equilibrated in 0-100% relative humidity cells for 7 days at room temperature. The samples were analyzed by XRPD and TGA. […] 10-15 mg samples were placed into 150 μL alumina crucibles and scanned between 25-250° C. at 10°/minute heating rate under 40 ml/minute N2 flow rate. For XRPD the ARL instrument was used.

[3] = Solubility of Form S14 in aqueous media at 37° C.; conditions: for solubility: thermodynamic from solid, read-out: Concentration (solubility)
Method: (§1) Solubility was tested by addition of portions of […] solution to 25 mg of STG salt and stirring it at 37° C. for 1-2 minutes till dissolved. Form S14 was also found to be chemically and polymorphically stable.

[4] = Chemical and polymorphic storage stability of Form S14; conditions: six months at 25° C.
Method: as §1

[5] = Storage of a crystalline form under controlled relative humidity, form determined by powder XRD
Method: About 100 mg of Sitagliptin L-malate form I1 was put in an open yellow plastic cap, and kept at 100% relative humidity (RH) and room temperature for 6 days. It was then analyzed by powder XRD, and found to have transformed into form I2.
About 150 mg of Sitagliptin sulfate form S2 was put in an open Petri dish, and kept at 100±5% RH and room temperature for 12 days. It was then analyzed by powder XRD, and found to have transformed into form S9.
About 150 mg of Sitagliptin sulfate form S6 was put in an open Petri dish, and kept at 100±5% RH and room temperature for 12 days. It was then analyzed by powder XRD, and found to have transformed into form S9.
About 150 mg of Sitagliptin sulfate form S14 was stored under 80% RH at 25° C. for 7 days. The sample was then tested by XRPD and determined to be crystal form Si of Sitagliptin sulfate.
About 150 mg of Sitagliptin sulfate form S14 was stored under 100% RH at 25° C. for 7 days.
About 150 mg of Sitagliptin sulfate form S14 was stored under 70% RH at 25° C. for 7 days. The sample was then tested by XRPD and determined to be crystal form S1 of Sitagliptin sulfate.
About 150 mg of Sitagliptin sulfate form S14 was stored under 60% RH at 40° C. for 3 days. The sample was then tested by XRPD and determined to be crystal form S1 of Sitagliptin sulfate.

[6] = 0% RH, 7 days, room temperature
[7] = 20% RH, 7 days, room temperature
[8] = 40% RH, 7 days, room temperature
[9] = 60% RH, 7 days, room temperature
[10] = 80% RH, 7 days, room temperature
[11] = 100% RH, 7 days, room temperature

## N[C@@H](CC(=O)N1CCn2c(nnc2C(F)(F)F)C1)Cc1cc(F)c(F)cc1F [Form S16, Sitagliptin sulfate]
[1]; classification of the European Pharmacopoeia Commission 01/2008:5110
  Solubility classification: freely soluble
[1]; in 1 mL of water, read-out: Amount soluble in 1 mL of water
  solubility: ≥ 100 mg/mL
[2]
  Hygroscopicity: low hygroscopicity
  Polymorphically stable up to (relative humidity): up to 60 % RH
  Equilibrium amount of water: about 2.9%
[2]; [6]
  % weight loss (TGA): 2.9%
[2]; [7]
  % weight loss (TGA): 2.9%
[2]; [8]
  % weight loss (TGA): 2.9%
[2]; [9]
  % weight loss (TGA): 2.9%
[2]; [10]
  % weight loss (TGA): 4.4%
[2]; [11]
  % weight loss (TGA): 8.9%
[2]; Before the experiment
  % weight loss (TGA): 3.0%
[2]; corresponds to the sesquihydrate
  Constant water content: 2.9%

## N[C@@H](CC(=O)N1CCn2c(nnc2C(F)(F)F)C1)Cc1cc(F)c(F)cc1F [Form S14, Sitagliptin sulfate]
[3]; aqueous medium, aqueous buffer, pH 4.5 37° C.
  solubility: 500 mg/mL
[3]; aqueous medium, aqueous buffer, pH 6.8 37° C.
  solubility: 330 mg/mL
[3]; aqueous medium, aqueous buffer, pH 7.8 37° C.
  solubility: 300 mg/mL
[3]; aqueous medium, simulated gastric fluid, pH 1.2, 37° C.
  solubility: 500 mg/mL
[3]; different aqueous media
  Solubility in different aqueous media: highly soluble
[3]; Water 37° C.
  solubility: 300 mg/mL
[4]
  Chemical and polymorphic stability: No degradation or polymorphic transformation
[5]; 80% RH at 25° C. for 7 days
  Form after storage (XRPD): Si
[5]; 100% RH at 25° C. for 7 days
  Form after storage (XRPD): polymorphic mixture of form S1 and form S11
[2]
  Hygroscopicity: hygroscopic
  Polymorphically stable up to (relative humidity): up to 60 % RH
  Equilibrium amount of water: about 2%
[2]; [6]
  % weight loss (TGA): 2.3%
[2]; [7]
  % weight loss (TGA): 2.0%
[2]; [8]
  % weight loss (TGA): 1.9%
[2]; [9]
  % weight loss (TGA): 2.4%
[2]; [10]
  % weight loss (TGA): 4.4%
[2]; [11]
  % weight loss (TGA): 8.9%
[2]; Before the experiment
  % weight loss (TGA): 3.4%
